Assay results as given in US10342795B2, “Substituted 4,5,6,7-tetrahydro-pyrazolo[1,5-a]pyrimidine derivatives and 2,3-dihydro-1H-imidazo[1,2-b]pyrazole derivatives as ROS1 inhibitors” (Janssen Pharmaceutica NV, priority 2014, dated 2019).

Legend:
Ros1 enzyme = target: T1, Ros1 enzyme (Homo sapiens, UniProt P08922); assay: Ros1 enzymatic assay; assay type: biochemical; details: -log IC50 (M); 20 μM ATP, 120 min at room temperature; read-out: ROS1 pIC50 (converted)
T1 construct: 0.5 μg/ml Ros1 enzyme
Protocol: Compounds were spotted onto white 384-well Proxiplate plus plates (Perkin Elmer) to which 5 μl of enzyme mix (0.5 μg/ml Ros1 enzyme, 50 mM Tris-HCl pH7.5, 1 mM EGTA, 10 mM MgCl2, 0.01% Tween-20) and 5 μl of substrate mix (6 μg/ml IRS-Tide [American Peptide Company], 20 μM ATP, 13.33 μCi/ml ATP (adenosine 5′-triphosphate) P^33, 50 mM Tris-HCl pH7.5, 1 mM EGTA (ethylene glycol-bis(2-aminoethylether)-N,N,N′,N′-tetraacetic acid), 10 mM MgCl2, 0.01% Tween-20) were added. After incubation for 120 minutes at room temperature, 10 μl of stop reaction buffer (5 mM EDTA, 50 μM ATP, 0.1% BSA (bovine serum albumin), 0.1% Triton X-100, 50 mM Tris-HCl pH7.5, 1 mM EGTA, 10 mM MgCl2, 0.01% Tween-20) containing 2 mg/ml streptavidin coupled polystyrene imaging beads (Amersham Biosciences) was added and incubated for 15 minutes at room temperature. Plates were centrifuged for 3 minutes at 1500 rpm and signals detected in a LEADseeker imaging system (GE).

[1] = target: Ba/F3 cells containing Ros1 wild-type protein (Homo sapiens, UniProt P08922, cells depend on it, form not given); assay: Ba/F3-Ros1 cell proliferation assay, wild-type Ros1, without IL-3; assay type: cell-based, murine; details: -log IC50 (M); wild-type Ros1, no IL-3, 24 h, Alamar Blue
Protocol: (§1) This assay was carried out with Ba/F3 cells containing three different versions of Ros1: the wild-type protein, protein with a mutation at the gatekeeper residue (L2026M), and protein with a mutation identified in a tumor from a patient that became resistant to crizotinib (Xalkori®) treatment (G2032R). Compounds were solubilized in 100% DMSO (dimethyl sulfoxide) and sprayed into polystyrene, tissue culture treated 384-well plates. A 50 μl volume of cell culture medium (phenol red free RPMI-1640, 10% FBS (fetal bovine serum), 2 mM L-Glutamine) containing 20000 Ba/F3-Ros1 cells was added to each well and the plates were placed in an incubator at 37° C. and 5% CO2. After 24 hours, 10 μl of Alamar Blue solution (0.5 mM K3Fe(CN)6, 0.5 mM K4Fe(CN)6, 0.15 mM Resazurin and 100 mM Phosphate Buffer) was added to the wells, incubated for 4 hours at 37° C. and 5% CO2 before RFU's (Relative Fluorescence Units) (ex. 540 nm., em. 590 nm.) were measured in a fluorescence plate reader.

[2] = tested on: Ba/F3 cells containing Ros1 wild-type protein + IL-3; assay: Ba/F3-Ros1 cell proliferation counter-screen, wild-type Ros1 in the presence of murine IL-3; assay type: cell-based; details: Mus musculus, BaF3, 24 h; -log IC50 (M); wild-type Ros1, 10 ng/ml murine IL-3 (counter-screen); read-out: BaF3-ROS1 + IL3 pIC50 (converted)
Protocol: as §1
As a counter-screen the same experiment was performed for the wild-type protein in the presence of 10 ng/ml murine IL-3.

[3] = target: Ba/F3 cells containing Ros1 L2026M (Homo sapiens, UniProt P08922, L2026M, cells depend on it, form not given); assay: Ba/F3-Ros1 cell proliferation assay, L2026M gatekeeper mutant; assay type: cell-based, murine; details: -log IC50 (M), no IL-3
Protocol: as §1

[4] = tested on: HCC78 non-small cell lung cancer cells; assay: HCC78 cell proliferation assay; assay type: cell-based; details: Homo sapiens, HCC78, 96 h; -log EC50 (M); 4 days, MTT; read-out: HCC-78 PROL pEC50 (converted)
Protocol: Approximately 1000 HCC78 non-small cell lung cancer cells in 180 μl of cell culture medium (RPMI-1640, 10% FBS, 2 mM L-Glutamine, 10 mM Hepes, 1 mM sodium pyruvate, 4.5 g/L glucose, 1.5 g/L sodium bicarbonate, 25 μg/ml Gentamycin) were seeded in each well of a 96-well polystyrene, tissue-culture treated plate and incubated at 37° C. and 5% CO2. After 24 hours, compounds were diluted in cell culture medium from which 20 μl was added to the wells containing cells and incubated for 4 days at 37° C. and 5% CO2. A 5 mg/ml solution of the tetrazolium dye MTT was prepared in PBS (phosphate-buffered saline) and 25 μl was added to each well. After 2 hours the medium was removed and replaced by 125 μL of 4/1 DMSO/glycine buffer (0.1M glycine, 0.1M NaCl, pH 10.5) before absorbance was determined at 538 nm.

[5] = target: Ba/F3 cells containing Ros1 G2032R (Homo sapiens, UniProt P08922, G2032R, cells depend on it, form not given); assay: Ba/F3-Ros1 cell proliferation assay, G2032R mutant; assay type: cell-based, murine; details: -log IC50 (M), no IL-3
Protocol: as §1

T1 sequence (P08922 28-2347): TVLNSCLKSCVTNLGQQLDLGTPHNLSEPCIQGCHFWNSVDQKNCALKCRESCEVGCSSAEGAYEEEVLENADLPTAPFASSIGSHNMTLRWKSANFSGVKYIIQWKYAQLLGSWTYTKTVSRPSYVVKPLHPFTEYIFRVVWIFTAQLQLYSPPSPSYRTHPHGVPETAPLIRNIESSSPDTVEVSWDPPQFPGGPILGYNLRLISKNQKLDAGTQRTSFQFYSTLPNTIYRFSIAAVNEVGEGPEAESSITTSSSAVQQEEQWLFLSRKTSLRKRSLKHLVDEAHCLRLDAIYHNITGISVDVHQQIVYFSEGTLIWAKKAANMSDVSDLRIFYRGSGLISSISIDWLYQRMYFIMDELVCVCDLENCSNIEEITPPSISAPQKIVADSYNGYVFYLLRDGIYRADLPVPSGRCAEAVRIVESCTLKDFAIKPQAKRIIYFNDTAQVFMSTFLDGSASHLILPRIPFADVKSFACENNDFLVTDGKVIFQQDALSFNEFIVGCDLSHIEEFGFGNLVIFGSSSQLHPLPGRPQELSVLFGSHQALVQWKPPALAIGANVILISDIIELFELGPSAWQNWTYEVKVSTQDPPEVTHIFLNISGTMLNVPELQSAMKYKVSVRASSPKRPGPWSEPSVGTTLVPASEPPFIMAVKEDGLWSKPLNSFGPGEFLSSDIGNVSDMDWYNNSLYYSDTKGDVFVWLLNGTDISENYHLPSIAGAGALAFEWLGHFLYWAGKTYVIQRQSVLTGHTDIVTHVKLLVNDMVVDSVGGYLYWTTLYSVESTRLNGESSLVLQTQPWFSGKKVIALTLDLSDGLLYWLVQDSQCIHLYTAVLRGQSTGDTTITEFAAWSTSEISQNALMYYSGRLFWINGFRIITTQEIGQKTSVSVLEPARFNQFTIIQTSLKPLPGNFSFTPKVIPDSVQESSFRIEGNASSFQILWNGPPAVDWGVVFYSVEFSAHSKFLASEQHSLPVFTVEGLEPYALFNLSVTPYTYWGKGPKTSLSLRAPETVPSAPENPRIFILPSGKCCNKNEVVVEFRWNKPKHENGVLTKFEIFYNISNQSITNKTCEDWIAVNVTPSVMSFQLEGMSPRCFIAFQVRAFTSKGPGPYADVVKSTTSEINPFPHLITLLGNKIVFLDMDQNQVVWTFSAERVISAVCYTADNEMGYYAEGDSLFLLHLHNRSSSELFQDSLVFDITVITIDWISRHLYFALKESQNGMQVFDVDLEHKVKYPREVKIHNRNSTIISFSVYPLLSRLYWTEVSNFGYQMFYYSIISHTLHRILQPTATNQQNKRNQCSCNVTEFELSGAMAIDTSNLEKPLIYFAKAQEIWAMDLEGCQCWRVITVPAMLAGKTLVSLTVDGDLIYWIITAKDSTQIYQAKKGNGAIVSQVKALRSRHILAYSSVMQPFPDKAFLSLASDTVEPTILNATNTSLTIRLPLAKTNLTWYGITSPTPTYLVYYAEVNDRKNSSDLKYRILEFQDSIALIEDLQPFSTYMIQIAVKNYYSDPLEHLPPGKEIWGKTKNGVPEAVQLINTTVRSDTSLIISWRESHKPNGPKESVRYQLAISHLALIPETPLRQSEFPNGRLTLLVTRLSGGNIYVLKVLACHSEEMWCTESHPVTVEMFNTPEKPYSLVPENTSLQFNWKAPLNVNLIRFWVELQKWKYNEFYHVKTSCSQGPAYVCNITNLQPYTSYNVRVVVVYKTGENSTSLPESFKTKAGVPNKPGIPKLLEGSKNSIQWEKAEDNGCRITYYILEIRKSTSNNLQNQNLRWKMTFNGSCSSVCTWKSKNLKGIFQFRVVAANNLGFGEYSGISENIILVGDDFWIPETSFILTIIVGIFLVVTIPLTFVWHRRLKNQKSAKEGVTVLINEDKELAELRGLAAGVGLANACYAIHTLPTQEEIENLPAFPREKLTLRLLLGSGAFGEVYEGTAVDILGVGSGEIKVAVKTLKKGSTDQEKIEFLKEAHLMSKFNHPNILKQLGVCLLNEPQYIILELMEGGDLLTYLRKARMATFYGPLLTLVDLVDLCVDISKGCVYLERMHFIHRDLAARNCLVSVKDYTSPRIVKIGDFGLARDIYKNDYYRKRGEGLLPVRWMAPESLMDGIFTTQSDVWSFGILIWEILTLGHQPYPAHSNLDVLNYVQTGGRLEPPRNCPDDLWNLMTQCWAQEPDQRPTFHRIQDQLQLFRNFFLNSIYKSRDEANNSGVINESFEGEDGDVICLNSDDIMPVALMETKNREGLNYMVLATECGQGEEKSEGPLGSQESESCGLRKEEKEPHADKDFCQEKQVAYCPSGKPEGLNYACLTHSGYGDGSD
Ba/F3 cells containing Ros1 L2026M, sequence (P08922 whole entry L2026M, form open): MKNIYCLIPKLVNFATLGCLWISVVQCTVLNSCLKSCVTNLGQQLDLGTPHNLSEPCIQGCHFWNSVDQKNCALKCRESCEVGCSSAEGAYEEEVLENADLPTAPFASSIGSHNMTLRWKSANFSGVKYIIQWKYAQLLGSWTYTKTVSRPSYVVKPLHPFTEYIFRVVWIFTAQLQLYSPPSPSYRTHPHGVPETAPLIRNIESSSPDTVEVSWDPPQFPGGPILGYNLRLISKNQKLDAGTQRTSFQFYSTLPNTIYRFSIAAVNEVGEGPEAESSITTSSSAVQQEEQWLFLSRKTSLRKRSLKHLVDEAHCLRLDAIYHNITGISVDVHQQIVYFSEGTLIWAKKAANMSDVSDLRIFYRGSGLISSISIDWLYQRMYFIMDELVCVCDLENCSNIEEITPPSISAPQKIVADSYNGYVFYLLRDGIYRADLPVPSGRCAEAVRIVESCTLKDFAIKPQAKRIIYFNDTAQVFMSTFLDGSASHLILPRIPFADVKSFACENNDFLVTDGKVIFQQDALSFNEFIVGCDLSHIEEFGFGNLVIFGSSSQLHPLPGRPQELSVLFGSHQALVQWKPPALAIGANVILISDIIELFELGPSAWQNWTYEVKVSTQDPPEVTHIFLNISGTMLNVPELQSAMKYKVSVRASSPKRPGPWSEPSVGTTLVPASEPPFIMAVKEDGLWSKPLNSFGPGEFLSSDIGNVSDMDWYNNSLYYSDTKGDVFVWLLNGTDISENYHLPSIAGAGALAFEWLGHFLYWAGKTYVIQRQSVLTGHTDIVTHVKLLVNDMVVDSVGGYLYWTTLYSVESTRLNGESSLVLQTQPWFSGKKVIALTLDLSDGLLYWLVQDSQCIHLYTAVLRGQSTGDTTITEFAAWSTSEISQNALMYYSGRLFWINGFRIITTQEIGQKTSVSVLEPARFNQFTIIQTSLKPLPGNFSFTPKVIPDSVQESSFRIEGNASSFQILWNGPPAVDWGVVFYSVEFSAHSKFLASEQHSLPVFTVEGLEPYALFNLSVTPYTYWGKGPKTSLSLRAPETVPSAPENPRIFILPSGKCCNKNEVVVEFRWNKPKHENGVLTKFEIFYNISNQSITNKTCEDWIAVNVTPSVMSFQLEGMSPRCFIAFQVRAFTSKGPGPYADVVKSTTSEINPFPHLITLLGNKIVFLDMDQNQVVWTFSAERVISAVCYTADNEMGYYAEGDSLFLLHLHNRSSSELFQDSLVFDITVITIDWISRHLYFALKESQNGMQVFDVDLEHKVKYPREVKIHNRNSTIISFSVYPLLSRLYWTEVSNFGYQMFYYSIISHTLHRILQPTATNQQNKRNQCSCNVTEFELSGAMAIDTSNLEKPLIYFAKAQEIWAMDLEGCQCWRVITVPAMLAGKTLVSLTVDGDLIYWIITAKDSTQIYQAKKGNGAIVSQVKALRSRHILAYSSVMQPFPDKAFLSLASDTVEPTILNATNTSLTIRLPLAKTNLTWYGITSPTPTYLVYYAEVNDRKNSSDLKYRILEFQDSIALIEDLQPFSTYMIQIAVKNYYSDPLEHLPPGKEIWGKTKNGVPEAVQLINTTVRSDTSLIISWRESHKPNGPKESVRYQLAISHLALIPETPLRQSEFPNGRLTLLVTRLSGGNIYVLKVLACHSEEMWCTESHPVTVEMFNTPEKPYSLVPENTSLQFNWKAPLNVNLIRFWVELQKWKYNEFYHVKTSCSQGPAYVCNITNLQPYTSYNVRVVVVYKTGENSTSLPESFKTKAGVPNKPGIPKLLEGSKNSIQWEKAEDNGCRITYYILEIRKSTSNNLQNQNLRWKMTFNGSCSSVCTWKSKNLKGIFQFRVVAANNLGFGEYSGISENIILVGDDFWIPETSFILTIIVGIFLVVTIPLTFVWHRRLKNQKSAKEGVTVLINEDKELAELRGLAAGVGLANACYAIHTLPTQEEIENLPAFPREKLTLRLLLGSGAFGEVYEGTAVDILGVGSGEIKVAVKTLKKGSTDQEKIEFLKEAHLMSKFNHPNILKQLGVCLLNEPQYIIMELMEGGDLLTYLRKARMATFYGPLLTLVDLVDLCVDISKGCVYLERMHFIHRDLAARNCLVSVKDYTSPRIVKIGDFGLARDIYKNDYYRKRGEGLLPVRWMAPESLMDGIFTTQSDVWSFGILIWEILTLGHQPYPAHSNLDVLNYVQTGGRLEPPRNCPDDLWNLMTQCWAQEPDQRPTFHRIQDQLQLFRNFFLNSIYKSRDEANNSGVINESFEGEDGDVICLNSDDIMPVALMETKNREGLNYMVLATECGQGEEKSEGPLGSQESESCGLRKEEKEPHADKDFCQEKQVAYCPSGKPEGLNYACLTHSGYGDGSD
Ba/F3 cells containing Ros1 wild-type protein, sequence (P08922 whole entry, stated change not applied): as the sequence (P08922 whole entry L2026M, form open) above, with M2026L counted along it
Ba/F3 cells containing Ros1 G2032R, sequence (P08922 whole entry G2032R, form open): as the sequence (P08922 whole entry L2026M, form open) above, with M2026L, G2032R counted along it

| Compound | IC50 (Ros1 enzyme) [M] | BaF3-ROS1 − IL3 pIC50 [1] | CC50 [2] [M] | Ba/F3 Ros1 L2026M (-IL-3) pIC50 [3] | EC50 [4] [M] | melting point [°C] | Ba/3 Ros1 G2032R (-IL-3) pIC50 [5] |
| --- | --- | --- | --- | --- | --- | --- | --- |
| CC(C)c1ccc(COc2cc(F)c(-c3c(-c4ccncc4)nn4c3NCC4)cc2F)cc1 [Co. 2] | 2.51e-08 | ~8.03 | > 1e-05 | 7.7 | 1.26e-08 | 153 | – |
| CC(C)c1ccc(COc2ccc(-c3c(-c4ccncc4)nn4c3NCC4)c(C#N)c2)cc1 [Co. 3] | 6.31e-08 | 7.2 | > 1e-05 | 6.6 | – | 191 | – |
| CC(C)c1ccc(COc2ccc(-c3c(-c4ccncc4)nn4c3NCC4)cn2)cc1 [Co. 4] | 1e-07 | 7.1 | 1.26e-06 | 7.1 | 6.31e-07 | 159 | – |
| CC(C)c1ccc(COc2ccc(-c3c(-c4ccncc4)nn4c3NCC4)c(F)c2)cc1 [Co. 5] | ~1.26e-07 | 7.1 | > 1e-05 | <5 | 7.94e-07 | 141 | 6.7 |
| CC(C)c1ccc(COc2ccc(-c3c(-c4ccncc4)nn4c3NCC4)cc2)cc1C#N [Co. 6] | 2e-07 | 6.7 | > 1e-05 | 6.4 | – | 158 | – |
| CC(C)c1ccc(COc2ccc(-c3c(-c4ccncc4)nn4c3NCC4)cc2)c(F)c1F [Co. 8] | 1.58e-06 | 6.3 | 3.98e-06 | 7.5 | 2e-06 | 149 | – |
| CC(C)c1ccc(COc2ccc(-c3c(-c4ccncc4)nn4c3NCC4)cc2)cc1CC(O)CO (centres unmarked) [Co. 9] | 6.31e-08 | 7.3 | > 1e-05 | 5.5 | 5.01e-07 | – | – |
| CC(C)c1ccc(COc2ccc(-c3c(-c4ccncc4)nn4c3NC(CO)C4)cc2)cc1 (centres unmarked) [Co. 11] | 2.51e-07 | 7.0 | 2.51e-06 | 6.8 | 7.94e-07 | – | – |
| CC(C)c1ccc(COc2ccc(-c3c(-c4ccncc4)nn4c3N(CCCN)CC4)cc2)cc1 [Co. 12] | 5.01e-07 | 6.3 | ~4.47e-06 | 6 | 1.58e-06 | – | – |
| CC(C)c1ccc(COc2ccc(-c3c(-c4ccncn4)nn4c3NCC4)cc2)cc1 [Co. 14] | 3.98e-07 | 6.5 | ~7.41e-06 | 6.6 | 1e-06 | 109 | – |
| CC(C)c1ccc(COc2ccc(-c3c(-c4ccncn4)nn4c3NCC4)c(F)c2)cc1 [Co. 15] | 2.51e-07 | 6.8 | > 1e-05 | <5 | 6.31e-07 | – | – |
| CC(C)c1ccc(COc2ccc(-c3c(-c4ccncc4)nn4c3NCCC4)c(F)c2)cc1 [Co. 18] | 2e-08 | 7.6 | > 1e-05 | 7.8 | 3.98e-07 | 188 | – |
| CC(C)c1ccc(COc2ccc(-c3c(-c4ccncc4)nn4c3N(C)CCC4)cc2)cc1 [Co. 19] | 1e-07 | 6.7 | > 1e-05 | 6.4 | 7.94e-07 | 120 | – |
| CC(C)c1ccc(COc2ccc(-c3c(-c4ccncc4)nn4c3N(CCO)C(=O)CC4)cc2)cc1 [Co. 20] | 3.16e-07 | 6.8 | > 1e-05 | – | – | 205 | – |
| CC(C)c1ccc(COc2ccc(-c3c(-c4ccncc4)nn4c3N(CCO)CCC4)cc2)cc1 [Co. 21] | 6.31e-08 | 7.4 | > 1e-05 | 6.9 | – | 147 | – |
| CC(C)c1ccc(COc2ccc(-c3c(-c4ccncc4)nn4c3N(C)C(=O)CC4)cc2)cc1 [Co. 22] | 5.01e-07 | 6.4 | > 1e-05 | – | – | 160 | – |
| CC(C)c1ccc(COc2ccc(-c3c(-c4ccncc4)nn4c3NC(CO)CC4)c(F)c2)cc1 (centres unmarked) [Co. 23] | 3.16e-08 | 7.9 | > 1e-05 | 7.8 | 1e-07 | – | – |
| CC(C)c1ccc(COc2ccc(-c3c(-c4ccncc4)nn4c3NC(CO)CC4)cc2)cc1 (centres unmarked) [Co. 24] | 6.31e-08 | 7.5 | 7.94e-06 | 7.6 | 7.94e-08 | 199 | – |
| CC(C)c1ccc(COc2ccc(-c3c(-c4ccncc4)nn4c3NCCC4CO)cc2)cc1 (centres unmarked) [Co. 25] | 1.26e-07 | 7.0 | > 1e-05 | 6.8 | 7.94e-07 | 155 | – |
| CNC(=O)C1CCNc2c(-c3ccc(OCc4ccc(C(C)C)cc4)cc3)c(-c3ccncc3)nn21 (centres unmarked) [Co. 26] | 3.16e-08 | 7.1 | > 1e-05 | 6.7 | 1.58e-07 | – | – |
| CNCC1CCNc2c(-c3ccc(OCc4ccc(C(C)C)cc4)cc3)c(-c3ccncc3)nn21 (centres unmarked) [Co. 27] | 5.01e-07 | 6.3 | ~6.31e-06 | 5.5 | – | – | – |
| CC(C)c1ccc(COc2ccc(-c3c(-c4ccncc4)nn4cccnc34)cc2)cc1 [Co. A] | 7.94e-08 | 6.8 | > 1e-05 | – | – | – | – |
| CC(C)c1ccc(COc2ccc(-c3c(-c4ccncc4)nn4cccnc34)c(F)c2)cc1 [Co. B] | 2.51e-08 | 7.2 | > 1e-05 | – | – | 187 | – |
| Cc1ccn2nc(-c3ccncc3)c(-c3ccc(OCc4ccc(C(C)C)cc4)cc3F)c2n1 [Co. C] | 3.16e-08 | 7.5 | > 1e-05 | 7.5 | 2e-07 | – | – |
| CC(C)c1ccc(COc2ccc(-c3c(-c4ccncc4)nn4ccc(=O)[nH]c34)cc2)cc1 [Co. E] | 6.31e-08 | 7.1 | > 1e-05 | 6.9 | 5.01e-07 | 243 | – |
| COC(=O)c1ccn2nc(-c3ccncc3)c(-c3ccc(OCc4ccc(C(C)C)cc4)cc3)c2n1 [Co. G] | 1e-06 | <5 | > 1e-05 | – | – | – | – |
| CCOC(=O)c1ccnc2c(-c3ccc(OCc4ccc(C(C)C)cc4)cc3)c(-c3ccncc3)nn12 [Co. H] | 5.01e-07 | 5.8 | > 1e-05 | – | – | 140 | – |
| CNC(=O)c1ccnc2c(-c3ccc(OCc4ccc(C(C)C)cc4)cc3)c(-c3ccncc3)nn12 [Co. J] | 5.01e-07 | 6.8 | > 1e-05 | 6.8 | 2e-06 | 207 | – |
